Data: article PMC4149317 (Acta biomaterialia, 2013)

Legend:
endothelial cells = settings: VEGF supplement to endothelial cells; ref [30]; cited from earlier work
VEGF (rhVEGF165) [1] = target: T1, VEGF (rhVEGF165) (Homo sapiens, UniProt P15692); assay: Heparin modulation of VEGF binding to microspheres
T1 sequence (P15692 1-191 isoform P15692-4): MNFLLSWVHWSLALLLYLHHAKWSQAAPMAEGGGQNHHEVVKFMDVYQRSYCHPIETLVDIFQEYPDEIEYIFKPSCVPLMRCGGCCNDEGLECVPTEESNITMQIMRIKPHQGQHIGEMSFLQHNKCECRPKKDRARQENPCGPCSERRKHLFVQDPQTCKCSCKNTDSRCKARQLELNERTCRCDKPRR

VEGF = settings: soluble VBP vs soluble VBPWT; ref [27]; cited from earlier work
[2] = ref [27], cited from earlier work
VEGF (rhVEGF165) [3] = target: T1, VEGF (rhVEGF165); assay: VEGF binding to PEG microspheres in serum-containing and albumin-only solutions; settings: 0.4% peptide density, albumin-only solution (1.25 wt.% BSA in PBS); p < 0.05 (Fig. 2D)

VEGF
Endothelial proliferation below 1 ng ml^−1 VEGF (endothelial cells): proliferation is decreased at VEGF concentrations below 1 ng ml^−1
VEGF concentration of maximal endothelial proliferation (endothelial cells): 1 to 1.2 ng/mL

heparin
Effect of soluble heparin on specificity of VEGF binding (VEGF (rhVEGF165) [1]; 10 µg ml^−1 UFH in albumin-containing solution, 1.6% peptide density (Fig. 3C)): reduced non-specific binding of VEGF
Effect of soluble heparin on VEGF binding affinity (VEGF (rhVEGF165) [1]; physiologic level of soluble heparin, UFH 10 µg ml^−1): increased VEGF binding affinity

CEFdAdYdLdIDFNWEYPASK [VBP]
VEGF binding affinity of soluble peptide (VEGF): higher than that of soluble VBPWT
Stability against protease-mediated degradation ([2]; four D-substituted amino acids vs wild-type): enhanced peptide stability against protease-mediated degradation
Serum stability of soluble peptide ([2]; soluble VBP vs soluble VBPWT): higher than that of soluble VBPWT
KD, VBP-VEGF vs VBPWT-VEGF, albumin-only solution (VEGF (rhVEGF165) [3]): exhibited a lower KD than VBPWT-VEGF
